Measurements reported in US8633242B2, “Benzylidene indanones and processes for preparation and use thereof” (Council of Scientific and Industrial Research, priority 2011, dated 2014).
Where two headings read alike, the source gives them in different places.

Tested on: Swiss albino mice
Settings: mouse, in vivo; for ALKP / Body weight / Haemoglobin / SGOT / SGPT / Serum creatinine / Serum total cholesterol / Serum triglycerides: po
Protocol: In view of potent anti-cancer activity of compound 8 in in-vitro model, acute oral toxicity of the same was carried out in Swiss albino mice for its further development into drug product. For the study, 30 mice (15 male and 15 female) were taken and divided into five groups comprising 3 male and 3 female mice in each group weighing between 20-25 g. The animals were maintained at 22±5° C. with humidity control and also on an automatic dark and light cycle of 12 hours. The animals were fed with the standard rat feed and provided ad libitum drinking water. Mice of group 1 were kept as control and animals of groups […] were kept as experimental. The animals were acclimatized for 7 days in the experimental environment prior to the actual experimentation. The test compound was suspended by ultrasonication in cremophore EL (20% in distilled water) using traces of ethanol as a co-solvent and was given at 5, 50, 300 and 1000 mg/kg body weight to animals of groups 2, 3, 4 and 5 respectively. Control animals received only vehicle.
The animals were checked for mortality and any signs of ill health at hourly interval on the day of administration of drug and there after a daily general case side clinical examination was carried out including changes in skin, mucous membrane, eyes, occurrence of secretion and excretion and also responses like lachrymation, pilo-erection respiratory patterns etc. Also changes in gait. posture and response to handling were also recorded (Allan at al., 2007). In addition to observational study, body weights were recorded and blood and serum samples were collected from all the animals on 7th day after experiment and were analysed for total RBC, WBC, differential leucoyte count haemoglobin percentage and biochemical parameters like total cholesterol, triglycerides, creatinine, SGPT and SGOT activity. The animals were then sacrificed and were necropsed for any gross pathological changes. Weights of vital organs like liver, heart, kidney etc. were recorded (Chanda et al., 2009).

## COc1cc(C2/C(=C/c3ccc4c(c3)OCO4)C(=O)c3cc(OC)c(OC)c(OC)c32)cc(OC)c1OC (racemic) [Compound 8, 2-(3,4-Methylenedioxybenzylidine), 3-(3,4,5-trimethoxyphenyl), 4,5,6-trimethoxyindanone]
300 mg/kg
  observational changes, morbidity and mortality: No observational changes, morbidity and mortality
  ALKP: 90.11 ± 5.42 U/L
  Body weight: 29.35 ± 1.63 g
  Haemoglobin: 11.46 ± 0.76 g/dL
  SGOT: 26.55 ± 3.23 U/L
  SGPT: 9.16 ± 1.14 U/L
  Serum creatinine: 0.56 ± 0.07 mg/dL
  Serum total cholesterol: 117.57 ± 3.45 mg/dL
  Serum triglycerides: 113.15 ± 3.65 mg/dL
5 mg/kg
  ALKP: 82.51 ± 3.04 U/L
  Body weight: 30.38 ± 0.77 g
  Haemoglobin: 11.31 ± 1.14 g/dL
  SGOT: 18.74 ± 1.54 U/L
  SGPT: 6.90 ± 0.17 U/L
  Serum creatinine: 0.53 ± 0.04 mg/dL
  Serum total cholesterol: 109.42 ± 5.46 mg/dL
  Serum triglycerides: 112.69 ± 3.75 mg/dL
50 mg/kg
  ALKP: 94.24 ± 8.83 U/L
  Body weight: 28.37 ± 1.42 g
  Haemoglobin: 12.93 ± 0.98 g/dL
  SGOT: 20.66 ± 1.15 U/L
  SGPT: 9.77 ± 0.77 U/L
  Serum creatinine: 0.45 ± 0.05 mg/dL
  Serum total cholesterol: 125.69 ± 5.90 mg/dL
  Serum triglycerides: 90.62 ± 8.41 mg/dL
1000 mg/kg
  Body weight: 30.69 ± 0.83 g
  Haemoglobin: 12.21 ± 1.46 g/dL
  SGOT: 19.38 ± 3.49 U/L
  Serum creatinine: 0.42 ± 0.09 mg/dL
  Serum total cholesterol: 118.60 ± 6.07 mg/dL
  Serum triglycerides: 97.44 ± 6.96 mg/dL
